Assay: Solid-state stability / form conversion under wet or high humidity conditions

| SMILES | stability under wet and/or high humidity environments (compared with non-hydrated forms) | humidity at which the form converts to Form II (exposure of solid to humidity) |
| --- | --- | --- |
| Cl.O=C1CC[C@@]2(O)[C@H]3Cc4ccc(O)c5c4[C@@]2(CCN3CC2CC2)[C@H]1O5 [Form II, naltrexone hydrochloride] | more stable |  |
| Cl.O=C1CC[C@@]2(O)[C@H]3Cc4ccc(O)c5c4[C@@]2(CCN3CC2CC2)[C@H]1O5 [Form I, naltrexone hydrochloride] |  | above 70% RH. |
